Assay results as given in patent US20230240953A1, “AN ANTIMICROBIAL COMPOSITION, PROCESS FOR PREPARING THE SAME AND METHOD OF USE THEREOF” (ISP INVESTMENTS LLC, priority 2020, published 2023).
Converted amounts (≈) assume the structure as drawn.

Key:
Format in all cases: cell-based
[1] = system: Aspergillus brasiliensis 16404; assay: Minimal inhibitory concentration (MIC), microplate broth dilution; settings: YMB, 10^5 cfu/ml, 4-5 days at 28° C., read-out: Minimal Inhibitory Concentrations (MICs) mean values, A. brasiliensis
Experimental: (§1) Briefly, each active was dissolved and then serially diluted in DMSO using a 96-well dilution microplate. Automated liquid handler was then used to stamp multiple assay plates out of this dilution plate. The appropriate growth medium containing a desired microorganism was then added to each well of the plate. For bacterial strains, Trypticase Soy Broth (TSB) was used with the final cell density of the microorganisms, in each well, being 10^6 cfu/ml. For fungal strains, Yeast Malt Broth (YMB) was used with the final density of each microorganism being 10^5 cfu/ml. Bacterial plates were incubated for 48 hours at 35° C. and fungal plates were incubated for 4-5 days at 28° C. prior to being evaluated. The lowest concentration of each compound to inhibit any visible growth was defined as minimum inhibitory concentration (MIC). In some cases, the highest tested concentration of the active was limited by its solubility in water. Whenever MIC was greater than the highest tested concentration, it was reported as being equal to, or greater than (>) the previous hypothetical dilution.

[2] = system: Burkholderia cepacia 25416; assay: as above; settings: TSB, 10^6 cfu/ml, 48 hours at 35° C., read-out: Minimal Inhibitory Concentrations (MICs) mean values, B. cepacia
Experimental: as §1

Candida albicans 10231 = assay: as above; settings: YMB, 10^5 cfu/ml, 4-5 days at 28° C., read-out: Minimal Inhibitory Concentrations (MICs) mean values, C. albicans
Experimental: as §1

Escherichia coli 8739 = assay: as above; settings: TSB, 10^6 cfu/ml, 48 hours at 35° C., read-out: Minimal Inhibitory Concentrations (MICs) mean values, E. coli
Experimental: as §1

[3] = system: Pseudomonas aeruginosa 9027; assay: as above; settings: TSB, 10^6 cfu/ml, 48 hours at 35° C., read-out: Minimal Inhibitory Concentrations (MICs) mean values, P. aeruginosa
Experimental: as §1

[4] = system: Staphylococcus aureus 6538; assay: as above; settings: TSB, 10^6 cfu/ml, 48 hours at 35° C., read-out: Minimal Inhibitory Concentrations (MICs) mean values, S. aureus
Experimental: as §1

[5] = system: Aspergillus brasiliensis 16404; assay: Checkerboard microplate synergy assay, compound A = HPB; settings: Aspergillus brasiliensis, 16404, HPB alone, read-out: HPB (QA): MIC of HPB acting alone
Experimental: (§2) The synergistic antimicrobial effect was determined using a commonly accepted method described by Kull A. C, Eisman, P. C. Sylwestrowicz, H. D. and Mayer, R. L. 1961. Applied Microbiology, 9:538-541
(§3) Briefly, the standard checkerboard approach was used to make all the dilutions. HPB (compound A) solution was prepared and then serially diluted in DMSO using the 96-well dilution plate. Automated liquid handler was then used to stamp multiple assay plates using this dilution plate. Each well of the assay plate was then supplemented with a predetermined concentration of the second antimicrobial (compound B). The final concentration of DMSO was kept constant across the plate for each assay, not exceeding 3% (w/w).
To evaluate antifungal activity of the actives, freshly prepared A. brasiliensis spores were harvested and resuspended in Yeast and Malt Broth (YMB). The spore suspension was then added to the appropriate plates with the final density being 10^5 cfu/ml.
(§4) To evaluate antibacterial activity of the actives, freshly prepared S. aureus and B. cepacia cells were harvested and resuspended in Trypticase Soy Broth (TSB). The cell suspension was then added to the wells of the appropriate plates with the final cell density being 10^6 cfu/ml. Fungal plates were incubated at 28° C. for 4-5 days, prior to being evaluated. Bacterial plates were incubated for 48 hours at 35° C. prior to being evaluated.
(§5) Synergy Index (SI)=Qa/QA+Qb/QB • Qa is the MIC of compound A (HPB) in ppm, when compound A is being used in combination with compound B • QA is the MIC of compound A (HPB) in ppm, acting alone • Qb is the MIC of compound B in ppm, when the compound B is being used in combination with compound A • QB is the MIC of compound B in ppm, acting alone Each ratio Qa/QA and Qb/QB is sometimes referred to as Fractional Inhibitory Concentrations (FICs) of compounds A and B, respectively, when these two compounds are being used in combination with one another. The sum of FICs constitute the Synergy Index (SI). The synergistic effect is indicated if the Synergy Index is below one (SI<1). An additive effect is indicated if the Synergy Index is equal to one (SI=1). An antagonistic effect is indicated if synergy index is greater than one (SI>1). The lower the SI index the greater the synergy.

[6] = system: Burkholderia cepacia 25416; assay: as above; settings: Burkholderia cepacia, 25416; B. cepacia; HPB alone; read-out: HPB (QA): MIC of HPB acting alone
Experimental: as §2, §3, §4, §5

[7] = system: Staphylococcus aureus 6538; assay: as above; settings: Staphylococcus aureus, 6538; S. aureus; HPB alone; read-out: HPB (QA): MIC of HPB acting alone
Experimental: as §2, §3, §4, §5

Compound | MIC [1] | MIC [2] | MIC (Candida albicans 10231) | MIC (Escherichia coli 8739) | MIC [3] | MIC [4] | MIC [5] | MIC [6] | MIC [7]
CC(=O)CCc1ccc(O)cc1 [Raspberry ketone, 4-(4-hydroxyphenyl) butan-2-one] | 4000 µg/mL (≈ 24.4 mM) | 2000 µg/mL (≈ 12.2 mM) | 4000 µg/mL (≈ 24.4 mM) | 4000 µg/mL (≈ 24.4 mM) | 4000 µg/mL (≈ 24.4 mM) | 28000 µg/mL (≈ 171 mM) | 4000 µg/mL | 2000 µg/mL | ≥ 8000 µg/mL
COc1ccc(CCC(C)=O)cc1 [Raspberry ketone methyl ether, 4-(4-methoxyphenyl)butan-2-one] | 1000 µg/mL (≈ 5.61 mM) | 1000 µg/mL (≈ 5.61 mM) | 2000 µg/mL (≈ 11.2 mM) | 2000 µg/mL (≈ 11.2 mM) | 4000 µg/mL (≈ 22.4 mM) | 28000 µg/mL (≈ 157 mM) | – | – | –
CC(=O)/C=C/c1ccc(O)cc1 [4-Hydroxybenzylideneacetone, (E)-4-(4-hydroxyphenyl)but-3-en-2-one] | 1000 µg/mL (≈ 6.17 mM) | 1000 µg/mL (≈ 6.17 mM) | 500 µg/mL (≈ 3.08 mM) | 2000 µg/mL (≈ 12.3 mM) | 4000 µg/mL (≈ 24.7 mM) | 500 µg/mL (≈ 3.08 mM) | – | – | –
